Source: ChEMBL document CHEMBL1201862, “PubChem BioAssay data set” (2004)
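Dose response: 5 concentrations. Exposure: 48 h. Format: 96-well plates. Endpoint: linear interpolation; highest concentration if not reached. At the GI50, growth is halved.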 Activity calls are given as the source filed them. No stated cut-off is given here; in the data, active = GI50 up to about 1.1 µM and inactive = higher.

Experiments:
Assay in all cases: NCI anticancer screen, dose series, 48 h
[1] = tested on: 786-0
[2] = tested on: A549
[3] = tested on: ACHN
[4] = tested on: CCRF-CEM
[5] = tested on: COLO 205
[6] = tested on: DLD-1
[7] = tested on: DMS-114
[8] = tested on: DMS-273
[9] = tested on: EKVX
[10] = tested on: HCC 2998
[11] = tested on: HCT-116
[12] = tested on: HCT-15
[13] = tested on: HL-60
[14] = tested on: HOP-18
[15] = tested on: HOP-62
[16] = tested on: HOP-92
[17] = tested on: HT-29
[18] = tested on: IGROV-1
[19] = tested on: K562
[20] = tested on: KM-20L2
[21] = tested on: KM12
[22] = tested on: LOX IMVI
[23] = tested on: LXFL 529
[24] = tested on: M14
[25] = tested on: MOLT-4
[26] = tested on: Malme-3M
[27] = tested on: NCI-H226
[28] = tested on: NCI-H23
[29] = tested on: NCI-H460
[30] = tested on: NCI-H522
[31] = tested on: OVCAR-3
[32] = tested on: OVCAR-4
[33] = tested on: OVCAR-5
[34] = tested on: OVCAR-8
[35] = tested on: RPMI-8226
[36] = tested on: RXF 393
[37] = tested on: RXF 631
[38] = tested on: SF-268
[39] = tested on: SF-295
[40] = tested on: SF-539
[41] = tested on: SK-MEL-28
[42] = tested on: SK-MEL-2
[43] = tested on: SK-MEL-5
[44] = tested on: SK-OV-3
[45] = tested on: SN12C
[46] = tested on: SNB-19
[47] = tested on: SNB-75
[48] = tested on: SR
[49] = tested on: SW-620
[50] = tested on: TK-10
[51] = tested on: U-251
[52] = tested on: UACC-257
[53] = tested on: UACC-62
[54] = tested on: UO-31
[55] = tested on: XF498
[56] = tested on: A498
[57] = tested on: CAKI-1
[58] = tested on: M19-MEL
[59] = tested on: SNB-78

O=c1[nH]c(=O)n(C2CC(O)C(CO)O2)cc1C#Cc1ccc(C(F)(F)F)cc1 (stereo not drawn)
GI50 [1]: > 100 µM (inactive)
GI50 [2]: > 100 µM (inactive)
GI50 [3]: > 100 µM (inactive)
GI50 [4]: > 100 µM (inactive)
GI50 [5]: > 100 µM (inactive)
GI50 [6]: > 100 µM (inactive)
GI50 [7]: > 100 µM (inactive)
GI50 [8]: > 100 µM (inactive)
GI50 [9]: 63.2 µM (inactive)
GI50 [10]: > 100 µM (inactive)
GI50 [11]: > 100 µM (inactive)
GI50 [12]: > 100 µM
GI50 [13]: > 100 µM (inactive)
GI50 [14]: > 100 µM (inactive)
GI50 [15]: > 100 µM (inactive)
GI50 [16]: 23.9 µM (inactive)
GI50 [17]: > 100 µM (inactive)
GI50 [18]: > 100 µM (inactive)
GI50 [19]: > 100 µM (inactive)
GI50 [20]: > 100 µM (inactive)
GI50 [21]: > 100 µM (inactive)
GI50 [22]: > 100 µM (inactive)
GI50 [23]: > 100 µM (inactive)
GI50 [24]: > 100 µM (inactive)
GI50 [25]: > 100 µM (inactive)
GI50 [26]: > 100 µM (inactive)
GI50 [27]: > 100 µM (inactive)
GI50 [28]: > 100 µM (inactive)
GI50 [29]: > 100 µM (inactive)
GI50 [30]: > 100 µM (inactive)
GI50 [31]: > 100 µM (inactive)
GI50 [32]: > 100 µM (inactive)
GI50 [33]: > 100 µM (inactive)
GI50 [34]: > 100 µM (inactive)
GI50 [35]: > 100 µM (inactive)
GI50 [36]: > 100 µM (inactive)
GI50 [37]: > 100 µM (inactive)
GI50 [38]: > 100 µM (inactive)
GI50 [39]: > 100 µM (inactive)
GI50 [40]: > 100 µM (inactive)
GI50 [41]: > 100 µM (inactive)
GI50 [42]: > 100 µM (inactive)
GI50 [43]: > 100 µM (inactive)
GI50 [44]: > 100 µM (inactive)
GI50 [45]: > 100 µM (inactive)
GI50 [46]: > 100 µM (inactive)
GI50 [47]: 61.5 µM (inactive)
GI50 [48]: > 100 µM (inactive)
GI50 [49]: > 100 µM (inactive)
GI50 [50]: > 100 µM (inactive)
GI50 [51]: > 100 µM (inactive)
GI50 [52]: > 100 µM (inactive)
GI50 [53]: > 100 µM (inactive)
GI50 [54]: > 100 µM (inactive)
GI50 [55]: > 100 µM (inactive)

CN1CCOC(c2ccccc2)O1 (stereo not drawn)
GI50 [1]: > 100 µM (inactive)
GI50 [56]: > 100 µM (inactive)
GI50 [2]: > 100 µM (inactive)
GI50 [3]: > 100 µM (inactive)
GI50 [57]: > 100 µM (inactive)
GI50 [4]: > 100 µM (inactive)
GI50 [5]: > 100 µM (inactive)
GI50 [6]: > 100 µM (inactive)
GI50 [7]: > 100 µM (inactive)
GI50 [8]: > 100 µM (inactive)
GI50 [9]: > 100 µM (inactive)
GI50 [10]: > 100 µM (inactive)
GI50 [11]: > 100 µM (inactive)
GI50 [12]: > 100 µM
GI50 [13]: > 100 µM (inactive)
GI50 [14]: > 100 µM (inactive)
GI50 [15]: > 100 µM (inactive)
GI50 [16]: > 100 µM (inactive)
GI50 [17]: > 100 µM (inactive)
GI50 [18]: > 100 µM (inactive)
GI50 [19]: > 100 µM (inactive)
GI50 [20]: > 100 µM (inactive)
GI50 [21]: > 100 µM (inactive)
GI50 [22]: > 100 µM (inactive)
GI50 [23]: > 100 µM (inactive)
GI50 [24]: > 100 µM (inactive)
GI50 [58]: > 100 µM (inactive)
GI50 [25]: > 100 µM (inactive)
GI50 [26]: > 100 µM (inactive)
GI50 [27]: > 100 µM (inactive)
GI50 [28]: > 100 µM (inactive)
GI50 [29]: > 100 µM (inactive)
GI50 [30]: > 100 µM (inactive)
GI50 [31]: > 100 µM (inactive)
GI50 [32]: > 100 µM (inactive)
GI50 [33]: > 100 µM (inactive)
GI50 [34]: > 100 µM (inactive)
GI50 [35]: > 100 µM (inactive)
GI50 [36]: > 100 µM (inactive)
GI50 [37]: > 100 µM (inactive)
GI50 [38]: > 100 µM (inactive)
GI50 [39]: > 100 µM (inactive)
GI50 [40]: > 100 µM (inactive)
GI50 [41]: > 100 µM (inactive)
GI50 [42]: > 100 µM (inactive)
GI50 [43]: > 100 µM (inactive)
GI50 [44]: > 100 µM (inactive)
GI50 [45]: > 100 µM (inactive)
GI50 [46]: > 100 µM (inactive)
GI50 [47]: > 100 µM (inactive)
GI50 [59]: > 100 µM (inactive)
GI50 [48]: > 100 µM (inactive)
GI50 [49]: > 100 µM (inactive)
GI50 [50]: > 100 µM (inactive)
GI50 [51]: > 100 µM (inactive)
GI50 [52]: > 100 µM (inactive)
GI50 [53]: > 100 µM (inactive)
GI50 [54]: > 100 µM (inactive)
